Data published in ChEMBL document CHEMBL4706610, “Hydroxypyridinone-Based Iron Chelators with Broad-Ranging Biological Activities” (J Med Chem, 2020).
Values after ≈ are worked out from the molar mass of the structure shown.

Key:
Pseudomonas aeruginosa = experiment: Antibacterial activity against Pseudomonas aeruginosa incubated for 2 hrs followed by sterilized TSB addition and measured after 24 hrs by visual inspection; type: functional; settings: time 26 hrs
[1] = Antioxidant activity assessed as ABTS radical scavenging activity by trolox-equivalent antioxidant capacity assay; type: functional
[2] = biological target: T1, Amyloid-beta precursor protein (Homo sapiens, UniProt P05067); experiment: Inhibition of self-induced amyloid beta (1 to 42) (unknown origin) aggregation by ThT fluorescence assay
[3] = biological target: T1, Amyloid-beta precursor protein; experiment: Inhibition of self-induced amyloid beta (1 to 42) (unknown origin) aggregation by ThT fluorescence assay relative to control; settings: concentration not given here
[4] = Binding affinity to iron assessed as pFe3+ at pH 7.4
Rattus norvegicus = experiment: Iron scavenging activity in 59Fe-ferritin-loaded Wistar rat assessed as iron mobilization efficacy at 450 umol/kg, po dosed 1 hr after 59Fe-ferritin injection and measured 24 hrs after 59Fe-ferritin injection by gamma counting method relative to control; type: functional; settings: dose 450 µmol/kg
[5] = test system: Human immunodeficiency virus 1; experiment: Antiviral activity against HIV1 BaL infected in human peripheral blood lymphocytes assessed as reduction in p24 production incubated for 5 days by ELISA; type: functional, organism-based; settings: Human immunodeficiency virus 1, BaL, PBL, 120 h
[6] = Octanol/water partition coefficient, log P of the compound shaken for 45 mins and measured after 15 mins; type: physicochemical; settings: time 60 min
[7] = Binding affinity to iron assessed as pFe3+ by spectrophotometric method
[8] = Binding affinity to iron assessed as pFe3+
[9] = test system: Staphylococcus epidermidis; experiment: Antibacterial activity against Staphylococcus epidermis ATCC 12228 measured after 18 to 24 hrs by CLSI-based microdilution technique; type: functional; settings: time 18-24 hrs
Acetylcholinesterase [10] = biological target: T2, Acetylcholinesterase (Electrophorus electricus, UniProt O42275); experiment: Inhibition of electric eel AChE using acetylthiocholine iodide as substrate preincubated for 15 mins followed by substrate addition and measured for 5 mins by Ellman's method
[11] = Antioxidant activity assessed as DPPH radical scavenging activity incubated for 30 mins by absorbance method; type: functional
Acetylcholinesterase [12] = biological target: Acetylcholinesterase (Torpedo californica, UniProt P04058); experiment: Inhibition of Torpedo californica AChE using acetylthiocholine iodide as substrate preincubated for 15 mins followed by substrate addition and measured for 5 mins; set-up: species or system Tetronarce californica
[13] = biological target: T1, Amyloid-beta precursor protein; experiment: Inhibition of human amyloid beta (1 to 42) aggregation incubated for 24 hrs by ThT fluorescence assay; settings: concentration not given here
Acetylcholinesterase [14] = biological target: T2, Acetylcholinesterase; experiment: Inhibition of electric eel AChE using acetylthiocholine iodide as substrate preincubated for 5 mins followed by substrate addition and measured after 2 mins by Ellman's method
[15] = Electrochemical behavior of the compound assessed as redox potential; type: physicochemical
Staphylococcus aureus [16] = experiment: Antibacterial activity against Staphylococcus aureus incubated for 2 hrs followed by sterilized TSB addition and measured after 24 hrs by visual inspection; type: functional; settings: time 26 hrs
Bacillus subtilis = experiment: Antibacterial activity against Bacillus subtilis incubated for 2 hrs followed by sterilized TSB addition and measured after 24 hrs by visual inspection; type: functional; settings: time 26 hrs
Escherichia coli = experiment: Antibacterial activity against Escherichia coli incubated for 2 hrs followed by sterilized TSB addition and measured after 24 hrs by visual inspection; type: functional; settings: time 26 hrs
[17] = biological target: T1, Amyloid-beta precursor protein; experiment: Inhibition of self-induced amyloid beta (1 to 42) (unknown origin) aggregation measured after 24 hrs by ThT fluorescence assay relative to control; settings: concentration not given here
[18] = Antioxidant activity assessed as DPPH radical scavenging activity incubated for 30 mins by UV-Vis spectrophotometric method; type: functional
Staphylococcus aureus [19] = experiment: Antibacterial activity against Staphylococcus aureus ATCC 25913 incubated for 20 hrs by CLSI-based broth microdilution method; type: functional
[20] = test system: Staphylococcus epidermidis; experiment: Antibacterial activity against Staphylococcus epidermidis incubated for 20 hrs by CLSI-based broth microdilution method; type: functional
Enterococcus faecium = experiment: Antibacterial activity against Enterococcus faecium BM4105 incubated for 20 hrs by CLSI-based broth microdilution method; type: functional
Enterococcus faecalis = experiment: Antibacterial activity against Enterococcus faecalis incubated for 20 hrs by CLSI-based broth microdilution method; type: functional
[21] = Binding affinity to iron assessed as pFe3+ at pH 7.4 by spectrophotometric method
Acetylcholinesterase [22] = biological target: T2, Acetylcholinesterase; experiment: Inhibition of electric eel AChE using acetylthiocholine iodide as substrate preincubated for 15 mins followed by substrate addition and measured for 5 mins by Ellman's reagent based UV-Vis spectrophotometric method
Providencia stuartii = experiment: Antibacterial activity against Providencia stuartii incubated for 24 hrs by visual inspection; type: functional
Staphylococcus aureus [23] = experiment: Antibacterial activity against Staphylococcus aureus incubated for 2 hrs followed by sterilized water addition and measured after 24 hrs by visual inspection; type: functional; settings: time 26 hrs
Plasmodium falciparum [24] = experiment: Antiplasmodial activity against chloroquine-sensitive Plasmodium falciparum 3D7 incubated for 48 hrs by parasite lactate dehydrogenase assay; type: functional, organism-based; settings: 3D7, 48 h
Plasmodium falciparum [25] = experiment: Antiplasmodial activity against chloroquine-sensitive Plasmodium falciparum D10 incubated for 48 hrs by parasite lactate dehydrogenase assay; type: functional, organism-based; settings: D10, 48 h
Plasmodium falciparum [26] = experiment: Antiplasmodial activity against chloroquine-resistant Plasmodium falciparum K1 incubated for 48 hrs by parasite lactate dehydrogenase assay; type: functional, organism-based; settings: K1, 48 h
Plasmodium falciparum [27] = experiment: Antiplasmodial activity against chloroquine-resistant Plasmodium falciparum Dd2 incubated for 48 hrs by parasite lactate dehydrogenase assay; type: functional, organism-based; settings: Dd2, 48 h
[28] = Partition coefficient, log P of the compound; type: physicochemical; settings: octanol/water

T1 sequence (P05067 whole entry): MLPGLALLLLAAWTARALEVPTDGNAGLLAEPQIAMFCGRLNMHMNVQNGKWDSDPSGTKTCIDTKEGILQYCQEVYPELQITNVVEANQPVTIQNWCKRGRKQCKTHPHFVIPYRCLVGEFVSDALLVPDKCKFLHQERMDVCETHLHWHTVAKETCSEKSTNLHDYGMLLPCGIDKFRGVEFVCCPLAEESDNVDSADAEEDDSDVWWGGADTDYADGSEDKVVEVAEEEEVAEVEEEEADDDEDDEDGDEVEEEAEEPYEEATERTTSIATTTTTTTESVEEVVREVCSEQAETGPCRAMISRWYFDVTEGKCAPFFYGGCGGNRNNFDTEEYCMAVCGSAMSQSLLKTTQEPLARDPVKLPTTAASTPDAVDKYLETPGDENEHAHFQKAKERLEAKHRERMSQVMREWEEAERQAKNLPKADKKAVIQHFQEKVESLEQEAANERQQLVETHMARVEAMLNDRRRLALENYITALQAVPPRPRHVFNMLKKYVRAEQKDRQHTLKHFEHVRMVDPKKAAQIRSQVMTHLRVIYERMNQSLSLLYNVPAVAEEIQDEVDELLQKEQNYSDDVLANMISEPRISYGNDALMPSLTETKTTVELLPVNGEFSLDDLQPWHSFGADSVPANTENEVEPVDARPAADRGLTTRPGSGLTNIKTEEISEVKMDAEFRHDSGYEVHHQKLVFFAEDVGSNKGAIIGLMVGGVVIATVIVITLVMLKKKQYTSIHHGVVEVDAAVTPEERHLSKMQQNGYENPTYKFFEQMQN
T2 sequence (O42275 whole entry): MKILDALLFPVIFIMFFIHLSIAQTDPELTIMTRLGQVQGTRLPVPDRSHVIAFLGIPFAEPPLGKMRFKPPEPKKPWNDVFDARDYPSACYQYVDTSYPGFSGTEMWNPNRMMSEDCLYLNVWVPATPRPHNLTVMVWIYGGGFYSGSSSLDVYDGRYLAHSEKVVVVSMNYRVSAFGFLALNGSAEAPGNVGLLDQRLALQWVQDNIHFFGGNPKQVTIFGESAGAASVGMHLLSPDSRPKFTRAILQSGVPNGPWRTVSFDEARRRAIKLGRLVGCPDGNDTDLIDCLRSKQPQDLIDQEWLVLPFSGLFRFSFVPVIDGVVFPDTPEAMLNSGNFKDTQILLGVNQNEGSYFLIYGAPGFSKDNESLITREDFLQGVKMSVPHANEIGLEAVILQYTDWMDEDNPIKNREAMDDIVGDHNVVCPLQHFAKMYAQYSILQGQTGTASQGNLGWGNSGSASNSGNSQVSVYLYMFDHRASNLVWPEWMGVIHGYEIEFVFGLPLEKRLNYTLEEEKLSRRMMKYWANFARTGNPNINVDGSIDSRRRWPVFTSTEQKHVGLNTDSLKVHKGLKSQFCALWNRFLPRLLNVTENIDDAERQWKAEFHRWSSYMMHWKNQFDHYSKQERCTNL
Chain of Acetylcholinesterase (Torpedo californica, UniProt P04058) (P04058 whole entry): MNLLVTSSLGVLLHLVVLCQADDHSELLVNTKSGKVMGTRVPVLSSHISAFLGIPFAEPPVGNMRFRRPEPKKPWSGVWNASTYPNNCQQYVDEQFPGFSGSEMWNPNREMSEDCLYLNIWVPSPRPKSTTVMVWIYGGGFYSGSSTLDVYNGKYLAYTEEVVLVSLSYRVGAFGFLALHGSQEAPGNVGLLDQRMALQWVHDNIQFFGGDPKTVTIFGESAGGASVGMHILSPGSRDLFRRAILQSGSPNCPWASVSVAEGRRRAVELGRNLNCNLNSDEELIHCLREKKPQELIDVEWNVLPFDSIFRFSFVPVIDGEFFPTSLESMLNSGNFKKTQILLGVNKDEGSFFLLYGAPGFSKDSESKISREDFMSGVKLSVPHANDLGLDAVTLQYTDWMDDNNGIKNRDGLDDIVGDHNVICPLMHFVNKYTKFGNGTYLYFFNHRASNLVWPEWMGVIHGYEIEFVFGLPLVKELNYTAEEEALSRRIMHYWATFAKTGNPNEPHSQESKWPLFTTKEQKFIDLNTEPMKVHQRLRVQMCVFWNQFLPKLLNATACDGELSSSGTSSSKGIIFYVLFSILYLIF

Structure (SMILES): CCCC(=O)NC(CCCNC(=O)c1c(O)c(=O)ccn1CCOC)(CCCNC(=O)c1c(O)c(=O)ccn1CCOC)CCCNC(=O)c1c(O)c(=O)ccn1CCOC
- MIC (Pseudomonas aeruginosa): 32 µg/mL (≈ 37.3 µM)

Structure (SMILES): O=c1cc(/C=C/c2nc3ccc(O)cc3s2)occ1O
- Activity [1]: 6.03
- IC50 [2]: 5.06 µM
- inhibition [3]: 78.3%

Structure (SMILES): CNC(=O)c1[nH]c(C)cc(=O)c1O
- Activity [4]: 22.8
- Efficacy (Rattus norvegicus): 50.1%
- IC50 [5]: 20 µM

Structure (SMILES): CC(=O)NCCCCCCn1ccc(=O)c(O)c1C
- logP at 1 h [6]: 0.53
- Activity [7]: 20.3

Structure (SMILES): O=c1cc(CO)[nH]cc1O
- Activity [8]: 22

Structure (SMILES): CN(C)c1ccc2c(-c3cc(NC(=S)NCCC(=O)NC(CCCNC(=O)c4[nH]ccc(=O)c4O)(CCCNC(=O)c4[nH]ccc(=O)c4O)CCCNC(=O)c4[nH]ccc(=O)c4O)ccc3C(=O)[O-])c3ccc(=[N+](C)C)cc-3oc2c1
- MIC [9]: 16 µM (≈ 18.1 µg/mL)

Structure (SMILES): Cc1c(O)c(=O)ccn1CC(=O)NCCCNc1c2c(nc3ccccc13)CCCC2
- IC50 (Acetylcholinesterase [10]): 0.64 µM

Structure (SMILES): COc1cccc2cc(C(=O)NCCn3ccc(=O)c(OCc4ccccc4)c3C)oc12
- EC50 [11]: > 1000 µM
- IC50 (Acetylcholinesterase [12]): 76 µM
- inhibition [13]: 36.1%

Structure (SMILES): Cc1c(OC(N)=O)c(=O)ccn1-c1ccccc1
- IC50 (Acetylcholinesterase [14]): 48.8 µM

Structure (SMILES): CC(=O)N(C)O
- Activity [8]: 13

Structure (SMILES): CCn1ccc(=O)c(O)c1C(=O)NCCCC(CCCNC(=O)c1c(O)c(=O)ccn1CC)(CCCNC(=O)c1c(O)c(=O)ccn1CC)NC(=O)[C@@H](N)CC(C)C
- MIC (Pseudomonas aeruginosa): 32 µg/mL (≈ 39.5 µM)

Structure (SMILES): CC(=O)N(O)CCCCCNC(=O)CCC(=O)N(O)CCCCCNC(=O)CCC(=O)N(O)CCCCCN [DEFEROXAMINE]
- Activity [8]: 26.6
- Activity [15]: -468 mV

Structure (SMILES): Cc1c(O)c(=O)ccn1CC(=O)NCC(O)CNc1c2c(nc3cc(Cl)ccc13)CCCC2 (stereo not given)
- IC50 (Acetylcholinesterase [10]): 0.64 µM

Structure (SMILES): CCCC(=O)NC(CCCNC(=O)c1c(O)c(=O)ccn1C)(CCCNC(=O)c1c(O)c(=O)ccn1C)CCCNC(=O)c1c(O)c(=O)ccn1C
- MIC (Staphylococcus aureus [16]): 8 µg/mL (≈ 11 µM)
- MIC (Bacillus subtilis): 8 µg/mL (≈ 11 µM)
- MIC (Pseudomonas aeruginosa): 16 µg/mL (≈ 22 µM)
- MIC (Escherichia coli): 8 µg/mL (≈ 11 µM)

Structure (SMILES): Cc1c(O)c(=O)ccn1CC(=O)NCC(O)CNc1c2c(nc3ccccc13)CCCC2 (stereo not given)
- Activity [8]: 21.7
- inhibition [17]: 86%
- IC50 (Acetylcholinesterase [10]): 0.96 µM
- EC50 [18]: 399 µM

Structure (SMILES): CCN(CC)c1ccc2c(-c3ccc(C(=O)NCc4c(O)c(=O)cc(C)n4C)cc3)c3ccc(=[N+](CC)CC)cc-3oc2c1
- MIC (Staphylococcus aureus [19]): 11 µM
- MIC [20]: 11 µM
- MIC (Enterococcus faecium): 11 µM
- MIC (Enterococcus faecalis): 11 µM

Structure (SMILES): CN(C)C(=O)c1cccc(O)c1O
- Activity [8]: 15

Structure (SMILES): Cc1c(O)c(=O)ccn1CCCC(=O)N1CCCC1c1nc2ccccc2s1 (stereo not given)
- Activity [21]: 19.2
- IC50 [11]: 148 µM
- IC50 (Acetylcholinesterase [22]): 14.7 µM
- inhibition [17]: 59.3%

Structure (SMILES): CCCC(=O)NC(CCCNC(=O)c1c(O)c(=O)ccn1CCO)(CCCNC(=O)c1c(O)c(=O)ccn1CCO)CCCNC(=O)c1c(O)c(=O)ccn1CCO
- MIC (Staphylococcus aureus [16]): 8 µg/mL (≈ 9.81 µM)
- MIC (Bacillus subtilis): 8 µg/mL (≈ 9.81 µM)
- MIC (Pseudomonas aeruginosa): 16 µg/mL (≈ 19.6 µM)
- MIC (Escherichia coli): 8 µg/mL (≈ 9.81 µM)

Structure (SMILES): CCCCCCn1ccc(=O)c(O)c1C(=O)NCCCC(CCCNC(=O)c1c(O)c(=O)ccn1CCCCCC)(CCCNC(=O)c1c(O)c(=O)ccn1CCCCCC)NC(=O)CCC
- MIC (Pseudomonas aeruginosa): 32 µg/mL (≈ 34.2 µM)

Structure (SMILES): COCCOCCOCC(=O)NC(CCC(=O)NCc1c(O)c(=O)cc(C)n1C)(CCC(=O)NCc1c(O)c(=O)cc(C)n1C)CCC(=O)NCc1c(O)c(=O)cc(C)n1C
- MIC (Providencia stuartii): 320 µg/mL (≈ 373 µM)
- MIC (Staphylococcus aureus [23]): 240 µg/mL (≈ 280 µM)

Structure (SMILES): O=c1cc(CNCCCCCCNc2ccnc3cc(Cl)ccc23)n(C2CC2)cc1OCc1ccccc1
- IC50 (Plasmodium falciparum [24]): 0.064 µM
- IC50 (Plasmodium falciparum [25]): 0.047 µM
- IC50 (Plasmodium falciparum [26]): 0.505 µM
- IC50 (Plasmodium falciparum [27]): 0.463 µM

Structure (SMILES): Cc1c(O)c(=O)ccn1CCN1CCCCC1
- logP [28]: 0.96
